Experimental data as given in patent US8293781B2, “Indole derivatives having cPLA2 inhibiting activity and applications and production methods of the same” (Daiichi Sankyo Company, Limited, priority 2007, dated 2012).
Where a name gives a salt, the structure may show the parent alone.

How the values were obtained:
[1] = test system: PGD2 production in rat mast cell like cell line RBL-2H3; assay: Antigen-induced PGD2 production system using RBL-2H3 sensitized by DNP specific IgE; format: cell-based; conditions: 0.5 h, RBL-2H3, anti-DNP-IgE sensitized, antigen 10 μg/ml, 30 minutes
Experimental: To evaluate the PGD2 production inhibiting activity, the antigen-induced PGD2 production system using rat mast cell like cell line RBL-2H3 sensitized by a dinitrophenol (DNP) specific IgE with reference to the method of Yamashita et al. (see Yamashita, M. et al., Br J Pharmacol 129: 367, 2000) was used. That is, rat mast cell like cell line RBL-2H3 cells were suspended in a Dulbecco's modified Eagle's medium (Nacalai Tesque) containing 10% bovine fetal serum (BioWhittaker) and 10 μg/ml gentamycin (Invitrogen). The infiltrating cell suspension 200 μl containing 1×10^5 cells per well was inoculated to 96-well culture plate and cultured over night under conditions of 5% CO2 and 37° C. The culture supernatant was removed, then the suspension was cultured for 2 hours in the presence of an anti-DNP-IgE antibody (1 μg/ml) for 2 hours to sensitize it. After the sensitization, the supernatant was removed and the test compound solution or solvent was added. The resultant product was precultured for 30 minutes, then 10 μg/ml of antigen (DNP-human serum albumin conjugate) was added to elicite PGD2 production.
30 minutes after antigen stimulus, the culture supernatant was recovered and the amount of PGD2 in the supernatant was measured using an EIA kit (made by Cayman). Based on the measurement value, the test compound concentration (IC50 value) suppressing the amount of PGD2 production at the time of nonaddition of the compound by 50% was calculated.

[2] = test system: LTB4 production in rat mast cell like cell line RBL-2H3; assay: Calcium ionophore-induced LTB4 production system using RBL-2H3; format: cell-based; conditions: 1 h, RBL-2H3, A23187 5 μM, one hour
Experimental: (§1) For the evaluation by LTB4 and Cys-LTs production inhibiting activity, the calcium ionophore-induced LTB4 and Cys-LTs production system using the rat mast cell like cell line RBL-2H3 with reference to the method of Ishiwara et al. (see Ishiwara M. et al., J Pharmacol Exp Ther 307: 583, 2003) was used. That is, rat mast cell like cell line RBL-2H3 cells were suspended in Dulbecco's modified Eagle's medium (Nacalai Tesque) containing 10% bovine fetal serum (BioWhittaker) and 10 μg/ml gentamycin (Invitrogen). The infiltrating cell suspension 200 μl containing 1×10^5 cells per well was inoculated to 96-well culture plate and cultured over night under conditions of 5% CO2 and 37° C. The culture supernatant was removed, then the test compound solution or solvent 50 μl was added. After 30 minutes preculture, calcium ionophore (A23187) was added to a final concentration of 5 μM to induce leukotriene production.
(§2) One hour after calcium ionophore stimulus, the culture supernatant was recovered and the amounts of LTB4 and Cys-LTs in the supernatant were measured using an EIA kit (made by Amersham). Based on the measurement values, the test compound concentrations suppressing 50% of the mediator production at the time of non-addition of a compound (IC50 value) were calculated.

[3] = test system: TPA-induced mouse dermatitis model; assay: TPA-induced mouse dermatitis model (ear thickness); format: in vivo; conditions: 50 mg/kg orally 30 minutes before TPA, 6 hours after TPA, C57BL/6 mice
Experimental: Phorbol ester (TPA) was applied to the ear to elicite acute inflammation having ear edema as a main symptom. In the present test model, it is known that arachidonic acid metabolites, constituting various lipid mediators, are involved in inflammation. By this Experiment, it is possible to evaluate the anti-inflammatory action in vivo of anti-inflammatory drugs acting on the arachidonic acid cascade.
The Experiment was performed with reference to the method of Chang et al. (see Chang J., Eur J Pharmacol 142: 197, 1987). That is, the ear of female C57BL/6 mice (Charles River Japan) were painted with 20 μl of TPA in an acetone solution (concentration 50 μg/ml) to induce dermatitis at the ear. The ear thicknesses before application of TPA and 6 hours after application of TPA were measured using a dial gauge and the increase in ear thickness caused by inflammation was calculated. The test compound or the 0.5% hydroxypropyl cellulose solution as vehicle was administered orally to the mice 30 minutes before application of TPA. Note that the number of mice used in the test was made six per group.
Based on the measurement value, the action of each test compound in suppressing the increase in ear thickness due to application of TPA was evaluated.

[4] = target: T1, cPLA2 crudely purified from the cytoplasm fraction of U937 (Homo sapiens, UniProt P47712); assay: Measurement of cPLA2 inhibitory activity (release of [14C]-arachidonic acid from phosphatidyl choline liposome); format: biochemical; conditions: cPLA2 from U937 cytoplasm fraction, [14C]arachidonyl-phosphatidyl choline liposome, 37° C., 60 minutes; read-out: cPLA2 inhibitory activity, 50% inhibiting concentration IC50
T1 construct: cPLA2 crudely purified from the cytoplasm fraction of U937; endogenous in cells; host or cells: U937 cells (cytoplasm fraction, crude purification)
T1 sequence (P47712 1-749): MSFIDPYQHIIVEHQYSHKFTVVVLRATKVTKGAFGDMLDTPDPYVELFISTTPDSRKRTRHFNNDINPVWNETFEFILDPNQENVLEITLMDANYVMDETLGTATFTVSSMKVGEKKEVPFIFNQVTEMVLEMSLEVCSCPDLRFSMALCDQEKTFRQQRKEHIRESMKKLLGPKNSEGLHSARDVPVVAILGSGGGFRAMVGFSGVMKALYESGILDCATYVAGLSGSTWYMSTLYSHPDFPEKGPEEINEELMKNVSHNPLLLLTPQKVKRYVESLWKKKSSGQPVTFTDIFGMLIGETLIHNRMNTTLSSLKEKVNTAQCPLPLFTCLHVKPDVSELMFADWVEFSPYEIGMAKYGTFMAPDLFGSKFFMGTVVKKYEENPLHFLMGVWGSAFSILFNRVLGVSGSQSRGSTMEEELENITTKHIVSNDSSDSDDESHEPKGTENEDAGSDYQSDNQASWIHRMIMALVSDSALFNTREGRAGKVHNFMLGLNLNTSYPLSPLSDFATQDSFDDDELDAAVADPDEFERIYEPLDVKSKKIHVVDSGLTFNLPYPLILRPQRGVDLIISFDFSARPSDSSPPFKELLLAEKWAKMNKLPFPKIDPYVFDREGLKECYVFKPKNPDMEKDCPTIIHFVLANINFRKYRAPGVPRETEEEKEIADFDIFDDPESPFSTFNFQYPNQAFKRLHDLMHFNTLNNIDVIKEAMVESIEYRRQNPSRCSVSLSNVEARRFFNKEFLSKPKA
Method in brief: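 The read-out is radioactivity from extracted [14C]-arachidonic acid, freed over 60 min at 37° C from liposomes of 14C-arachidonyl phosphatidylcholine (10 μM PC in the added solution). Buffer was 50 mM HEPES pH 7.5 with Ca2+, DTT, NaCl and BSA. IC50 was derived from inhibition relative to enzyme control minus no-enzyme control.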

[5] = test system: Cys-LTs production in rat mast cell like cell line RBL-2H3; assay: Calcium ionophore-induced Cys-LTs production system using RBL-2H3; format: cell-based; conditions: 1 h, RBL-2H3, A23187 5 μM, one hour
Experimental: as §1, §2

IC50 [2]: 630 nM
IC50 [4]: 141 nM
IC50 [5]: 1380 nM
Compound: O=C(O)CCc1ccc2c(c1)c(CCc1ccccc1)cn2-c1ccc(OC(F)(F)F)cc1 [Example 193, 3-{3-(2-phenylethyl)-1-[4-(trifluoromethoxy)phenyl]-1H-indol-5-yl}propanoic acid 2-amino-2-(hydroxymethyl)propane-1,3-diol salt (1:1)]
IC50 [1]: 820 nM
Suppression rate of increase in ear thickness [3]: 19.4%
